Patent US20220354835A1, “COMPOUNDS FOR DEGRADING TAU PROTEIN AGGREGATES AND USES THEREOF” (Aprinoia Therapeutics Limited, priority 2019, published 2022)
pIC50, pKd: −log10 of the molar value.

Columns and labels:
[1] = target: T1, heparin-induced aggregated tau (aTau), full-length 2N4R human Tau (Homo sapiens, UniProt P10636); assay: In vitro fluorometric aTau binding assay; conditions: 0.04 μM aTau, serially diluted compound 10 to 0.00017 μM, 37° C. 1 hour, fluorescence
T1 construct: transformed with a full-length 2N4R tau expression plasmid; made in house; host or cells: E. coli BL21
Procedure: (§1) (A) Expression and purification of human Tau: 1 mM IPTG (Sangon Biotech, Cat. No A100487) was used to induce production of tau by bacteria (BL21, Invitrogen, Cat. No C600003) transformed with a full-length 2N4R tau expression plasmid. After 3 hours, cell pellet was resuspended in lysis buffer (100 mM PIPES, 1 mM EGTA, 1 mM MgSO4, pH 6.8) and lysed by sonication followed by centrifugation (15,000 rpm, 15 min, 4° C.). The supernatant was then placed in a boiling water bath for 20 min, followed by centrifugation (15,000 rpm, 15 min, 4° C.). Supernatant was loaded onto a Q-Sepharose® Fast Flow column (GE healthcare, Cat. No 17-0510-01), the flow-through fraction was loaded onto an SP-Sepharose® Fast Flow column (GE healthcare, Cat. No 17-0729-01), and tau protein was eluted with elution buffer (100 mM PIPES, 1 M NaCl, 1 mM EGTA, 1 mM MgSO4, 0.2 M NaCl, pH 6.8). Collected fractions of tau-containing eluates were pooled, concentrated and dialyzed against HEPES buffer (25 mM HEPES, 0.1 mM EDTA, 0.5 mM DTT, 100 mM NaCl, pH 7.2) and stored at −80° C. in small aliquots until use. Protein concentration was determined by UV absorption.
(§2) (B) Preparation of heparin-induced aggregated tau (aTau): 2 μM of tau prepared in 30 mM Tris-HCl, pH 7.5 buffer was incubated in tube with 15 μM heparin (Sigma, Cat. No H3149) at 37° C. for 24 hours.
(D) In vitro fluorometric aTau binding assays: 2 μM aTau was diluted to 0.04 μM with 30 mM Tris-HCl (pH 6.8), and then incubated with serially diluted compound (three-fold serial dilutions, from 10 to 0.00017 μM) in a 96-well plate (Corning, Cat. No 3573) at 37° C. for 1 hour. Fluorescence intensity (excitation/emission=370/500 nm) of APN-0729 was read by microplate spectrometer (EnSpire 2300, PerkinElmer). Compound Kd values were calculated using the following equation: Y=Bmax* X (Kd+X), where X is the concentration of compound; Y is the fluorescence signal of (compound+aTau)−(compound+DMSO); and Bmax is the maximum signal.

[2] = target: T1, heparin-induced aggregated tau (aTau), full-length 2N4R human Tau; assay: PBB5 competition assay; assay type: binding; conditions: 0.12 μM aTau; for pIC50: 0.1 μM PBB5, 37° C. 1 hour, PBB5 fluorescence 530/690 nm; for Emax: 0.1 μM PBB5, compound up to 10 μM, read-out: Competition Assay with PBB5: Bmax (%)
Procedure: as §1, §2
(E) PBBS competition assay: 2 μM of aTau was diluted to 0.12 μM by […] (pH 6.8) and then incubated with 0.1 μM 2-(4-(2-(methylamino)pyridine-5-yl)-1,3-butadiene-1-yl)benzothiazole-6-ol (PBB5) and serially diluted compound (three-fold serial dilution, from 10 to 0.00017 μM) in a 96-well plate (Corning, Cat. No 3573) at 37° C. for 1 hour. Fluorescence intensity (excitation/emission=530/690 nm) of PBB5 was read by microplate spectrometer (EnSpire 2300, PerkinElmer). Percentage of competition was calculated using the following equation: (Max−well of compound alone)/(Max−Min)*100%, where Max=(Tau+PBB5) signals−(buffer+PBB5) signals; and Min=(buffer+PBB5) signals−(buffer+PBB5) signals.
The IC50 value of each compound was calculated with GraphPad Prism software using the “4 Parameter Logistic Model or Sigmoidal Dose-Response Model”:
Y=Bottom+(Top−Bottom)/(1+(IC50/×)^HillSlope)

[3] = target: T2, Tau aggregates in P301L-Tau-FL-GFP HEK293 cells (Homo sapiens, UniProt P10636, P618L); assay: Tau degradation assay (APNmAb005 ELISA-based Tau aggregation assay); assay type: cell-based; conditions: 1 μM of compound, 24 hours, P301L-Tau-FL-GFP HEK293 cells seeded with rTg4510 brain lysate; read-out: Activity (reduction of tau aggregates)
T2 construct: express full-length human tau T40 (2N4R) carrying the P301L mutation with a GFP tag; expressed in transfected cells
Procedure: (A). Cell-based model of Tau inclusion formation: Six month old rTg4510 mouse brain lysates were used as the source of tau seeds, prepared as described in Example 26 above. P301L-Tau-FL-GFP HEK293 cells represent HEK293 cells express full-length human tau T40 (2N4R) carrying the P301L mutation with a GFP tag (P301L-Tau-FL-GFP). 1×10^6 of P301L-Tau-FL-GFP HEK293 cells were cultured on a 6-well plate in culture medium containing DMEM/F-12 (Gibco) supplemented with 10% fetal bovine serum (FBS) (Gibco), 1% Penicillin-Streptomycin (Gibco) and 0.5 mg/ml geneticin (Thermo Fisher Scientific) for 24 hours to reach 70-90% confluency, indicating the cells were ready for transfection. 50 μg of 6-month-old rTg4510 mouse brain lysate was diluted in 400 μL of serum free medium and mixed with 16 μL of lipofectamine 3000 reagent (Thermo Fisher Scientific) diluted in 400 μl of serum free medium. A solution mixture of rTg4510 brain lysate and lipofectamine 3000 was incubated at room temperature for 25 min. The culture media were removed, and then a solution mixture of rTg4510 lysate and lipofectamine 3000 was added to the cells for transfection. The solution mixture was incubated at room temperature for five hours, followed by medium change to 10% fetal bovine serum (FBS). After two-day incubation, Tau aggregates (Tau spots) were induced and images were acquired by ImageXpress Micro Confocal high-content imaging system (Molecular Devices) as described in Example 52 above. Analysis was performed by two customized modules in MetaXpress software (Molecular Devices) for aggregated tau analysis. Output included cell numbers, numbers of tau spots, average intensity of tau spots, and average size of tau spots.
(B). Compound treatment: 100 μL of 3×10^4 cells comprising Tau aggregates, prepared as described above in step (A), were plated on a 96-well plate coated with poly-D-lysine (BD Biosciences) and cultured for 24 hours. Compounds to be tested were dissolved in culture medium containing 0.1% DMSO. Each of test compounds in the concentration of 1, 0.2 and 0.04 μM was added to the cells comprising Tau aggregates and incubated at 37° C. for 24 hours. After that, culture medium was removed, cells were washed with PBS solution and then lysed using 30 μL of lysis buffer (PBS containing 0.3% Triton X-100 and 400 mM NaCl) for one hour at 4° C., and then cell lysate was diluted by 170 μl of PBS containing 400 mM NaCl. Cell lysate was filtrated by a […] filtration plate (Pall) and applied for Tau aggregation assay.
(C). Control cell lysate: control cell lysate was collected from non-seeded cells.
(D). ELISA-based Tau aggregation assay: APNmAb005 ELISA kit for Tau aggregation assay was designed and developed to detect abnormal tau aggregates in buffered solution or cell lysate by using anti-Tau APNmab005 as capture and detection antibody. This antibody is a highly specific antibody bound to human tau aggregates accumulated in mammalian cells. APNmAb005 is recited in PCT Patent Application No. PCT/M2020/057415, filed Aug. 5, 2020, which is incorporated herein by reference.
0.15 μg of APNmAb005 in 100 mM sodium carbonate buffer (pH 9.6) was coated on a high-binding polystyrene 96-well microplate (Greiner Bio-One) at 4° C. overnight. The microplate was washed with PBS followed by treatment with Intercept (PBS) blocking buffer (LI-COR) at room temperature for 2 hours. After that, the microplate was washed with PBS, and then the cell lysate with compound treatment, prepared as described above in step (C), was added into each well of the microplate and incubated at room temperature for 2 hours. The microplate was washed with PBS and then incubated with HRP-conjugated secondary antibody APNmAb005 at room temperature for 3 hours. HRP-conjugated secondary antibody APNmAb005 was prepared using HRP conjugation kit (Abcam,ab102890). The microplate was then washed with PBS and incubated with 100 μL of horseradish peroxidase (HRP) substrate at room temperature. […]

T1 sequence (P10636 1-441 isoform P10636-8): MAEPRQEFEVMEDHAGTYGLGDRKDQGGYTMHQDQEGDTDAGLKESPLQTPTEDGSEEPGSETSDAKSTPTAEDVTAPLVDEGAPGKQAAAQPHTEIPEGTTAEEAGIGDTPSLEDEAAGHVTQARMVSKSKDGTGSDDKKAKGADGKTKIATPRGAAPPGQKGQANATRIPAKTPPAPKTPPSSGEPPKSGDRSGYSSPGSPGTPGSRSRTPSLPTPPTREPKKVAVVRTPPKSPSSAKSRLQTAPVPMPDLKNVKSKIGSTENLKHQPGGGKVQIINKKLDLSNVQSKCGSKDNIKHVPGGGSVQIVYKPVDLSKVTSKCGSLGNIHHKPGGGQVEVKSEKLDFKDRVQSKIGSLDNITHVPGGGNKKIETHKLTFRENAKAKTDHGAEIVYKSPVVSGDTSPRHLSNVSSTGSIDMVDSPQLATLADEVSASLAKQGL
T2 sequence (P10636 1-441 isoform P10636-8 P301L): as the sequence (P10636 1-441 isoform P10636-8) above, with P301L counted along it

SMILES: CN(C)c1ccc(-c2ccc(-c3nc4ccc(NCCOCCOCCOCCOCCOCCOc5ccc6c(c5)C(=O)N(C5CCC(=O)NC5=O)C6=O)cc4s3)cc2)cn1 (centres unmarked) [Compound 159985, 2-[2,6-bis(oxo)piperidin-3-yl]-5-[2-[2-[2-[2-[2-[2-[[2-[4-[6-(dimethylamino)-pyridin-3-yl]phenyl]-1,3-benzothiazol-6-yl]amino]ethoxy]ethoxy]ethoxy]ethoxy]ethoxy]-ethoxy]isoindole-1,3-dione]
- pKd [1]: 7.00
- pIC50 [2]: 6.49
- Emax [2]: 71%
- inhibition at 1 µM [3]: < 10%

SMILES: CN(C)c1ccc(-c2ccc(-c3nc4ccc(NCCOCCOc5ccc6c(c5)C(=O)N(C5CCC(=O)NC5=O)C6=O)cc4s3)cc2)cn1 (centres unmarked) [Compound 160219, 2-[2,6-bis(oxo)piperidin-3-yl]-5-[2-[2-[[2-[4-[6-(dimethylamino)pyridin-3-yl]phenyl]-1,3-benzothiazol-6-yl]amino]ethoxy]ethoxy]isoindole-1,3-dione]
- pKd [1]: 6.96
- pIC50 [2]: 6.82
- Emax [2]: 69%
- inhibition at 1 µM [3]: < 10%

SMILES: CN(C)c1ccc(-c2ccc(-c3nc4ccc(NCCOCCOCCOCCOCCOCCOc5ccc6c(c5)CN(C5CCC(=O)NC5=O)C6=O)cc4s3)cc2)cn1 (centres unmarked) [Compound 160273, 3-[6-[2-[2-[2-[2-[2-[2-[[2-[4-[6-(dimethylamino)pyridin-3-yl]phenyl]-1,3-benzothiazol-6-yl]amino]ethoxy]ethoxy]ethoxy]ethoxy]ethoxy]ethoxy]-3-oxidanylidene-1H-isoindol-2-yl]piperidine-2,6-dione]
- pKd [1]: 6.33
- pIC50 [2]: 6.57
- Emax [2]: 59%
- inhibition at 1 µM [3]: < 10%

SMILES: CN(C)c1ccc2nc(-c3ccc(-c4ccc(NCCOCCOCCOCCOCCOCCOc5ccc6c(c5)CN(C5CCC(=O)NC5=O)C6=O)nc4)cc3)sc2c1 (centres unmarked) [Compound 160383, 3-[6-[2-[2-[2-[2-[2-[2-[[5-[4-[6-(dimethylamino)-1,3-benzothiazol-2-yl]-phenyl]pyridin-2-yl]amino]ethoxy]ethoxy]ethoxy]ethoxy]-ethoxy]ethoxy]-3-oxo-1H-isoindol-2-yl]piperidine-2,6-dione]
- pKd [1]: 6.26
- pIC50 [2]: 6.57
- Emax [2]: 80%
- inhibition at 1 µM [3]: < 10%

SMILES: CN(C)c1ccc(-c2ccc(-c3cn4cc(OCCOCCOCCOCCOCCOCCOc5ccc6c(c5)C(=O)N(C5CCC(=O)NC5=O)C6=O)ccc4n3)cc2)c(F)n1 (centres unmarked) [Compound 160744, 2-[2,6-bis(oxo)piperidin-3-yl]-5-[2-[2-[2-[2-[2-[2-[2-[4-[6-(dimethyl-amino)-2-fluoro-pyridin-3-yl]phenyl]imidazo[1,2-a]pyridin-6-yl]oxyethoxy]ethoxy]ethoxy]-ethoxy]ethoxy]ethoxy]isoindole-1,3-dione]
- pKd [1]: 6.82
- pIC50 [2]: 5.22
- Emax [2]: 113%
- inhibition at 1 µM [3]: 10 to 20%
